Patent publication US20210137828A1, “Cannabidiol Sublingual Spray Formulations” (priority 2019, published 2021)

Key:
[1] = Impurity stability of CBD sublingual spray formulation; assay type: physicochemical; parameters: unit not given here
Description: Stability data was established for formulations with 25 mg/spray, 0.2% sucralose, 0.4% strawberry flavor, and 10% ethanol in the presence of MCT oil. […] This can be extrapolated to assigning a one year expiration at room temperature for lipid based formulation. See Table 1 through 2 for stability data of impurities and assay.

[2] = test system: chronic inflammatory and neuropathic pain; conditions: rodents; cited from earlier work
[3] = test system: human experimental psychosis; conditions: cited from earlier work
anxiety = conditions: patients with social anxiety disorder; cited from earlier work
breast tumor cell lines = conditions: different breast tumor cell lines; cited from earlier work
non-cancer cells = conditions: compared with breast tumor cell lines; cited from earlier work
[4] = test system: estrogen receptor-positive and estrogen receptor-negative breast cancer cells; conditions: cited from earlier work
[5] = test system: non-tumorigenic, mammary cells; conditions: at concentrations effective in tumor cells; cited from earlier work
[6] = 700 milligrams per day for 6 weeks; cited from earlier work
toxin-induced vomiting = conditions: low doses; cited from earlier work
incidence of diabetes = conditions: non-obese diabetic mice, cited from earlier work
[7] = test system: vascular damage, vascular hyperpermeability; conditions: high glucose environment, inflammation or induction of type 2 diabetes in animal models; cited from earlier work
seizure frequency = conditions: cited from earlier work
seizures = conditions: doses up to 25 milligrams per kilogram of body weight; cited from earlier work

For `C=C(C)[C@@H]1CCC(C)=C[C@H]1c1c(O)cc(CCCCC)cc1O` [CBD, cannabidiol], the “CBD peak (RRT 1.00) in impurity stability data” value (shortened to “CBD peak”) ([1]; T = 0) was 99.24, the “CBD peak” value ([1]; T = 2wk 25 C.) was 99.05 and the “CBD peak” value ([1]; T = 2wk 40 C.) was 98.60. For the same molecule, the “CBD peak” value ([1]; T = 4wk 25 C.) was 98.75, the “CBD peak” value ([1]; T = 4wk 40 C.) was 97.96 and the Analgesic tolerance [2] was “without causing analgesic tolerance”. The “Suppression of chronic inflammatory and neuropathic pain” value [2] was “significantly suppressed chronic inflammatory and neuropathic pain”, the “Effect on human experimental psychosis” value [3] was “prevents human experimental psychosis” and the Effect on anxiety (anxiety) was “reduce anxiety”. The “Inhibition of growth of breast tumor cell lines” value (breast tumor cell lines) was “potently and selectively inhibited the growth”, the “Potency in non-cancer cells” value (non-cancer cells) was “significantly less potency in non-cancer cells” and the “Cell death of breast cancer cells” value [4] was “induced a concentration-dependent cell death”. The “Effect on non-tumorigenic mammary cells” value [5] was “little effect”, the “Overt toxicity in humans” value [6] was “did not show any overt toxicity” and the “Effect on toxin-induced vomiting” value (toxin-induced vomiting) was “suppresses toxin-induced vomiting”. The Incidence of diabetes (incidence of diabetes; 86 percent in non-treated mice) was 30%, the “Insulitis, histological examination of pancreatic islets” value (incidence of diabetes) was “significantly reduced insulitis” and the “Plasma levels of pro-inflammatory cytokines” value (incidence of diabetes) was “significant reduction”. For the same molecule, the “Protection against vascular damage” value [7] was “protects against the vascular damage”, the “Parents reporting a reduction in their child's seizure frequency” value (seizure frequency; 16 of 19 parents) was 84% and the “Parents reporting greater than 80 percent reduction in seizure frequency” value (seizure frequency; eight of 19 parents) was 42%. For the same molecule, the Side effects (seizure frequency; parent survey, children with epilepsy) was “drowsiness and fatigue”, the “Parents reporting 25-60 percent seizure reduction” value (seizure frequency; six of 19 parents) was 32% and the “Parents reporting complete seizure freedom” value (seizure frequency; two of 19 parents) was 11%. For the same molecule, the Tolerability (seizures) was “generally well-tolerated”.
